Assay results as given in the NIST ThermoML archive (doi:10.1021/je060271a).
Where “and” joins values, the source holds several entries; their conditions need not be identical. Equal values may be shown once.

Conditions: 283.16 K, Liquid, Vibrating tube method

CCCCCC(=O)OCC(COC(=O)CCCCC)(COC(=O)CCCCC)COC(=O)CCCCC [pentaerythritol tetrahexanoate]
Conditions	mass density
227.4 kPa	1004.4 kg/m3
235.2 kPa	1004.3 kg/m3
235.3 kPa	1004.3 kg/m3
237.1 kPa	1004.4 kg/m3
361.3 kPa	1004.3 kg/m3
363.1 kPa	1004.3 kg/m3
365.9 kPa	1004.3 kg/m3
403.2 kPa	1004.4 kg/m3
405.8 kPa	1004.3 kg/m3
408.6 kPa	1004.4 kg/m3
410.7 kPa	1004.4 kg/m3
439.2 kPa	1004.4 kg/m3
500.7 kPa	1004.3 kg/m3
504.2 kPa	1004.4 kg/m3
508.2 kPa	1004.5 kg/m3
663.2 kPa	1004.4 kg/m3
669.2 kPa	1004.5 kg/m3
813.4 kPa	1004.5 kg/m3
1597.6 kPa	1005.1 kg/m3
1612.4 kPa	1005 kg/m3
1627.1 kPa	1005.2 kg/m3
1642.8 kPa	1005.2 kg/m3
1657.5 kPa	1005.1 kg/m3
1675.4 kPa	1005.1 kg/m3
1690.5 kPa	1005.2 kg/m3
1705.1 kPa	1005.2 kg/m3
1720 kPa	1005.1 kg/m3
1767.2 kPa	1005.1 kg/m3
1782.2 kPa	1005.2 kg/m3
1800 kPa	1005.2 kg/m3
1833.4 kPa	1005.3 kg/m3
1844.8 kPa	1005.2 kg/m3
2221.4 kPa	1005.5 kg/m3
2237 kPa	1005.5 kg/m3
2251.7 kPa	1005.5 kg/m3
2267.5 kPa	1005.4 kg/m3
2279.3 kPa	1005.5 kg/m3
2540.2 kPa	1005.7 kg/m3
2564.1 kPa	1005.7 kg/m3
2812.8 kPa	1005.7 kg/m3
2855.3 kPa	1005.8 kg/m3
3252.2 kPa	1006 kg/m3
3270.9 kPa	1006.1 kg/m3
3286.9 kPa	1006.1 kg/m3
3302.6 kPa	1006.1 kg/m3
3318.6 kPa	1006.2 kg/m3
3372.5 kPa	1006.1 kg/m3
3388.4 kPa	1006.1 kg/m3
3420.8 kPa	1006.1 kg/m3
3440.8 kPa	1006.1 kg/m3
3456.7 kPa	1006.1 kg/m3
3473.5 kPa	1006.1 kg/m3
3493.4 kPa	1006.3 kg/m3
3510.2 kPa	1006.3 kg/m3
3530.5 kPa	1006.2 kg/m3
3547.3 kPa	1006.3 kg/m3
3564.3 kPa	1006.2 kg/m3
3581.1 kPa	1006.3 kg/m3
3601.7 kPa	1006.3 kg/m3
3619.1 kPa	1006.3 kg/m3
3636 kPa	1006.1 kg/m3
3657.3 kPa	1006.3 kg/m3
3674.7 kPa	1006.2 kg/m3
3692.2 kPa	1006.3 kg/m3
3709.8 kPa	1006.3 kg/m3
3730.8 kPa	1006.4 kg/m3
3748.8 kPa	1006.3 kg/m3
3766.1 kPa	1006.4 kg/m3
3784.2 kPa	1006.4 kg/m3
3805.3 kPa	1006.3 kg/m3
3823 kPa	1006.3 kg/m3
3841.3 kPa	1006.5 kg/m3
3863 kPa	1006.3 kg/m3
3877.2 kPa	1006.4 kg/m3
3895.2 kPa	1006.5 kg/m3
3920.3 kPa	1006.4 kg/m3
3938.5 kPa	1006.5 kg/m3
4764.4 kPa	1006.8 kg/m3
4769.6 kPa	1006.9 kg/m3
4781 kPa	1006.9 kg/m3
4797.5 kPa	1007 kg/m3
5309.2 kPa	1007.3 kg/m3
5315.8 kPa	1007.3 kg/m3
5321.5 kPa	1007.3 kg/m3
5327.9 kPa	1007.2 kg/m3
5334.1 kPa	1007.3 kg/m3
5341.5 kPa	1007.2 kg/m3
5347.3 kPa	1007.4 kg/m3
5354.7 kPa	1007.4 kg/m3
5361.1 kPa	1007.3 kg/m3
5367.3 kPa	1007.2 kg/m3
5373.4 kPa	1007.3 kg/m3
5380.6 kPa	1007.3 kg/m3
5386.9 kPa	1007.3 kg/m3
5392.9 kPa	1007.3 kg/m3
5400.4 kPa	1007.2 kg/m3
5406.9 kPa	1007.2 kg/m3
5413 kPa	1007.3 kg/m3
5419.4 kPa	1007.3 kg/m3
5426.8 kPa	1007.3 kg/m3
5432 kPa	1007.3 kg/m3
5438.4 kPa	1007.3 kg/m3
5446 kPa	1007.4 kg/m3
5521.9 kPa	1007.3 kg/m3
6618.4 kPa	1007.9 kg/m3
6623.1 kPa	1008.1 kg/m3
6626.7 kPa	1008 kg/m3
6630.5 kPa	1008.2 kg/m3
6653 kPa	1008 kg/m3
6657.1 kPa	1008.1 kg/m3
6661.4 kPa	1008 kg/m3
6666.3 kPa	1008 kg/m3
6670.4 kPa	1008 kg/m3
6722 kPa	1008 kg/m3
6726 kPa	1008.1 kg/m3
6730.2 kPa	1008.1 kg/m3
6734.1 kPa	1008.1 kg/m3
6738.3 kPa	1008 kg/m3
6743.3 kPa	1008.1 kg/m3
6747.1 kPa	1007.9 kg/m3
6750.9 kPa	1008 kg/m3
6755.6 kPa	1008 kg/m3
6763.5 kPa	1008.2 kg/m3
6768 kPa	1008 kg/m3
6772.6 kPa	1008 kg/m3
6775.9 kPa	1008.2 kg/m3 and 1008.1 kg/m3
6776.4 kPa	1008.1 kg/m3 and 1008 kg/m3
6783.8 kPa	1008 kg/m3
6784.2 kPa	1008.2 kg/m3
6784.5 kPa	1008 kg/m3
6785.8 kPa	1008.2 kg/m3
8353.5 kPa	1009.1 kg/m3
8367.6 kPa	1008.9 kg/m3
9689.3 kPa	1009.7 kg/m3 and 1009.8 kg/m3
9689.5 kPa	1009.7 kg/m3
9689.6 kPa	1009.7 kg/m3
9689.8 kPa	1009.7 kg/m3
9690.2 kPa	1009.8 kg/m3
9691.7 kPa	1009.7 kg/m3
9694.6 kPa	1009.8 kg/m3
9697.7 kPa	1009.8 kg/m3
9697.9 kPa	1009.8 kg/m3 and 1009.9 kg/m3
9702.1 kPa	1009.8 kg/m3
9711.5 kPa	1009.8 kg/m3
